According to ChEMBL document CHEMBL4177690, “(E)-3-(3,4,5-Trimethoxyphenyl)-1-(pyridin-4-yl)prop-2-en-1-one, a heterocyclic chalcone is a potent and selective CYP1A1 inhibitor and cancer chemopreventive agent” (Bioorg Med Chem Lett, 2017):

Experiments:
[1] = biological target: T1, Cytochrome P450 1A1 (Homo sapiens, UniProt P04798); assay: Inhibition of human CYP1A1 expressed in yeast microsomal membranes using 7-ethoxyresorufin as substrate measured after 10 mins by fluorescence assay; format: cell membranes
T1 sequence (P04798 whole entry): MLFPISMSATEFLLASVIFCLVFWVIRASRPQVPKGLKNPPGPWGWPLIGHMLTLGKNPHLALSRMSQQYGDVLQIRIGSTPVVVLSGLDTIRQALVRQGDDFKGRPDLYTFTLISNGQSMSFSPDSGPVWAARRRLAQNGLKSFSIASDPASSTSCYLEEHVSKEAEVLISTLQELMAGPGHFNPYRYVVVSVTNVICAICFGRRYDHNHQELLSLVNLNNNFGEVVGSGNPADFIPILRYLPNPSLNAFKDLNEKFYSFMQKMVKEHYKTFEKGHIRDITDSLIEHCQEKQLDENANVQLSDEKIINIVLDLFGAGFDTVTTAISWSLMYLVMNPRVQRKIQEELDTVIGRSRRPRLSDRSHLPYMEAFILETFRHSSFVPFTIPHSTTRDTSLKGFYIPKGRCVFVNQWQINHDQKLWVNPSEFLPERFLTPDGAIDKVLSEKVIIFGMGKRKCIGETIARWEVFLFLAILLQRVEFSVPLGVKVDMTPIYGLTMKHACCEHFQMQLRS

[2] = biological target: T2, Cytochrome P450 1B1 (Homo sapiens, UniProt Q16678); assay: Inhibition of human CYP1B1 expressed in yeast microsomal membranes using 7-ethoxyresorufin as substrate measured after 10 mins by fluorescence assay; format: cell membranes
T2 sequence (Q16678 whole entry): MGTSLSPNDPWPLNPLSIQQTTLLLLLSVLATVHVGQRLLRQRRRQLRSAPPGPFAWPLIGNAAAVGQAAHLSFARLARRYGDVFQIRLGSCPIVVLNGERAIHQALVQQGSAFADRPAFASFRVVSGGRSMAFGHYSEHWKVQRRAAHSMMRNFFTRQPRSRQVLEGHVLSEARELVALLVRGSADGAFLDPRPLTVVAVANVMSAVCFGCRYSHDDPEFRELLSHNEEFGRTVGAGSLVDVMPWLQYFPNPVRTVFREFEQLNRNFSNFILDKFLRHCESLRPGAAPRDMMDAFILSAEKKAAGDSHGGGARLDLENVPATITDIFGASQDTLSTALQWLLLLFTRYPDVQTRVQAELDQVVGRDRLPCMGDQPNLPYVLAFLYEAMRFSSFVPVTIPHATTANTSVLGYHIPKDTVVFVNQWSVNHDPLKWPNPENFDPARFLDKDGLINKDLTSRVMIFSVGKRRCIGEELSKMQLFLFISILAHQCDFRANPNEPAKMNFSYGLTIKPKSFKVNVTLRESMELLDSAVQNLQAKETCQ

[3] = biological target: T3, Cytochrome P450 1A2 (Homo sapiens, UniProt P05177); assay: Inhibition of human CYP1A2 expressed in yeast microsomal membranes using 3-cyano-7-ethoxycoumarin as substrate measured after 10 mins by fluorescence assay; format: ADME, cell membranes, Microsomal Membrane
T3 sequence (P05177 whole entry): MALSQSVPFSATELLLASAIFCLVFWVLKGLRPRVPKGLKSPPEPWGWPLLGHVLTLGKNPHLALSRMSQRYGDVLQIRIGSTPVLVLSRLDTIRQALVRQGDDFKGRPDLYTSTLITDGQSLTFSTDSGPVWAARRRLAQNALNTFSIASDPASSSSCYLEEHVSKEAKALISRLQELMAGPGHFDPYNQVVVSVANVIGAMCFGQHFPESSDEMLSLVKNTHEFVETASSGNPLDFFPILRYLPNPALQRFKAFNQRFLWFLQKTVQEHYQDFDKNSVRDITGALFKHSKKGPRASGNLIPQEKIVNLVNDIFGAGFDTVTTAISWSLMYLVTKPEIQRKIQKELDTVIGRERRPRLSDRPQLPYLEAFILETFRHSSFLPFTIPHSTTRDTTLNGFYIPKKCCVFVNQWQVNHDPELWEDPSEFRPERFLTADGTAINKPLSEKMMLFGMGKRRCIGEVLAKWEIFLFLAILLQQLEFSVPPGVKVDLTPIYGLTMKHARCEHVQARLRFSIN

[4] = biological target: T4, Cytochrome P450 2D6 (Homo sapiens, UniProt P10635); assay: Inhibition of human CYP2D6 expressed in yeast microsomal membranes using 7-ethoxy-methyloxy-3-cyanocoumarin as substrate measured after 10 mins by fluorescence assay; format: ADME, cell membranes, Microsomal Membrane
T4 sequence (P10635 whole entry): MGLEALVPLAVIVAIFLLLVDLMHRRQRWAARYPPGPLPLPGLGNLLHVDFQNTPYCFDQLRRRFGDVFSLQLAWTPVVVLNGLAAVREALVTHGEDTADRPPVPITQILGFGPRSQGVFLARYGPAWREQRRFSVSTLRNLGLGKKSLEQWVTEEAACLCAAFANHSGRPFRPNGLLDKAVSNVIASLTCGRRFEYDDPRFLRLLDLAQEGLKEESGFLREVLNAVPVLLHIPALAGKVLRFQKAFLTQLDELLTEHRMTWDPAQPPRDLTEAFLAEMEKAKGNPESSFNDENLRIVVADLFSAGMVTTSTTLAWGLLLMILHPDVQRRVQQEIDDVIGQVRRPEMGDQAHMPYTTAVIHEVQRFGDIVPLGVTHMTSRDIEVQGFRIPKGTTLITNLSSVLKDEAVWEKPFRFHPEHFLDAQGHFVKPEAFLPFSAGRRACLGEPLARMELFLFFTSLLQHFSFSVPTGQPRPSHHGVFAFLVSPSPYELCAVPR

[5] = biological target: T5, Cytochrome P450 2C9 (Homo sapiens, UniProt P11712); assay: Inhibition of human CYP2C9 expressed in yeast microsomal membranes using 3-cyano-7-ethoxycoumarin as substrate measured after 10 mins by fluorescence assay; format: ADME, cell membranes, Microsomal Membrane
T5 sequence (P11712 whole entry): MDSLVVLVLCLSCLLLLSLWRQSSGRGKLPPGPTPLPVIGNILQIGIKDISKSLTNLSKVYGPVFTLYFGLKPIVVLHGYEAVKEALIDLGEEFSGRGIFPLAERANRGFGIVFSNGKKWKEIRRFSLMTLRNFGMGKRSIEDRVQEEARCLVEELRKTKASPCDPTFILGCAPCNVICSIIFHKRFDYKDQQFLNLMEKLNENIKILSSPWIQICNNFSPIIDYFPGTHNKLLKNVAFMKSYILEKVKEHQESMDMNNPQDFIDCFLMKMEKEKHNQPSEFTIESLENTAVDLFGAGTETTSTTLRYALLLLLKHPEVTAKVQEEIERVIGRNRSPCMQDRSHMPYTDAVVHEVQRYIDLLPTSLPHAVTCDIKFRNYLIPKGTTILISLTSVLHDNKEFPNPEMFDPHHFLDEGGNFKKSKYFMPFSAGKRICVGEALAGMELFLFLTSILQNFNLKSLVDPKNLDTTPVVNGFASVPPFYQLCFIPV

[6] = biological target: T6, Cytochrome P450 2C19 (Homo sapiens, UniProt P33261); assay: Inhibition of human CYP2C19 expressed in yeast microsomal membranes using 3-cyano-7-ethoxycoumarin as substrate measured after 10 mins by fluorescence assay; format: ADME, cell membranes, Microsomal Membrane
T6 sequence (P33261 whole entry): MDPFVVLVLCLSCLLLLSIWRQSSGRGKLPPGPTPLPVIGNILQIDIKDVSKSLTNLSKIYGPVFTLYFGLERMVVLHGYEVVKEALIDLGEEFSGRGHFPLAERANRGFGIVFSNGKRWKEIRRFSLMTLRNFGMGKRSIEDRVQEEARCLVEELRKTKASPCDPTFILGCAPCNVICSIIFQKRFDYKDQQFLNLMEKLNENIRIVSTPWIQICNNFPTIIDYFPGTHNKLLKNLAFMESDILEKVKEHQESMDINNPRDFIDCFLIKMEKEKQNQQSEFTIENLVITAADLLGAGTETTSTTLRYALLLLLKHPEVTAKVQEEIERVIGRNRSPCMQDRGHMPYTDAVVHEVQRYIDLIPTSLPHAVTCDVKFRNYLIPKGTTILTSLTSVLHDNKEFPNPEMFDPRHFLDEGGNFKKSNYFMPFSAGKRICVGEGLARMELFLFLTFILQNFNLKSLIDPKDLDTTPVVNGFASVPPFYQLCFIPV

[7] = biological target: T7, Cytochrome P450 3A4 (Homo sapiens, UniProt P08684); assay: Inhibition of human CYP3A4 expressed in yeast microsomal membranes using dibenzylfluorescein as substrate measured after 10 mins by fluorescence assay; format: ADME, cell membranes, Microsomal Membrane
T7 sequence (P08684 whole entry): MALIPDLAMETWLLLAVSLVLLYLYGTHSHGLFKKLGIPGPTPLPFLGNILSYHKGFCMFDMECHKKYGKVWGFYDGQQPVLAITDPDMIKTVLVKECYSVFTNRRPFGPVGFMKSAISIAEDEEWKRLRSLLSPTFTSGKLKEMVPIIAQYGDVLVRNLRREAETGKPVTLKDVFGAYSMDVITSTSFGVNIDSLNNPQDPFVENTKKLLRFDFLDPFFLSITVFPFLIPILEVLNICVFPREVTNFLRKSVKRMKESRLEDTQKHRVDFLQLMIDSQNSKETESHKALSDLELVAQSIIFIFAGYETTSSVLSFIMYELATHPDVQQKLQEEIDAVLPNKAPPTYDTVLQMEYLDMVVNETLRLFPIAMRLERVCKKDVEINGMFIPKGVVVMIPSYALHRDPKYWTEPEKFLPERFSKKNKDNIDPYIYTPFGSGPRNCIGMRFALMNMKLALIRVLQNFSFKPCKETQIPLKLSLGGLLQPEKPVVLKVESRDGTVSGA

[8] = biological target: T1, Cytochrome P450 1A1; assay: Inhibition of recombinant human CYP1A1 expressed in HEK293 cells using 7-ethoxyresorufin as substrate pretreated for 30 mins followed by substrate addition measured for 60 mins by fluorescence assay; format: cell-based
[9] = biological target: T2, Cytochrome P450 1B1; assay: Inhibition of recombinant human CYP1B1 expressed in HEK293 cells using 7-ethoxyresorufin as substrate pretreated for 30 mins followed by substrate addition measured for 60 mins by fluorescence assay; format: cell-based
[10] = biological target: T3, Cytochrome P450 1A2; assay: Inhibition of recombinant human CYP1A2 expressed in HEK293 cells using 3-cyano-7-ethoxycoumarin as substrate pretreated for 30 mins followed by substrate addition measured for 60 mins by fluorescence assay; format: ADME
[11] = biological target: T4, Cytochrome P450 2D6; assay: Inhibition of recombinant human CYP2D6 expressed in HEK293 cells using 7-ethoxy-methyloxy-3-cyanocoumarin as substrate pretreated for 30 mins followed by substrate addition measured for 60 mins by fluorescence assay; format: ADME, cell-based
[12] = biological target: T5, Cytochrome P450 2C9; assay: Inhibition of recombinant human CYP2C9 expressed in HEK293 cells using 3-cyano-7-ethoxycoumarin as substrate pretreated for 30 mins followed by substrate addition measured for 60 mins by fluorescence assay; format: ADME
[13] = biological target: T6, Cytochrome P450 2C19; assay: Inhibition of recombinant human CYP2C19 expressed in HEK293 cells using 3-cyano-7-ethoxycoumarin as substrate pretreated for 30 mins followed by substrate addition measured for 60 mins by fluorescence assay; format: ADME
[14] = biological target: T7, Cytochrome P450 3A4; assay: Inhibition of recombinant human CYP3A4 expressed in HEK293 cells using dibenzylfluorescein as substrate pretreated for 30 mins followed by substrate addition measured for 60 mins by fluorescence assay; format: ADME
[15] = species on record: Homo sapiens; assay: Selectivity ratio of IC50 for recombinant human CYP1B1 expressed in HEK293 cells to IC50 for recombinant human CYP1A1 expressed in HEK293 cells; format: cell-based
[16] = species on record: Homo sapiens; assay: Selectivity ratio of IC50 for recombinant human CYP1A2 expressed in HEK293 cells to IC50 for recombinant human CYP1A1 expressed in HEK293 cells; format: cell-based
[17] = biological target: T8, Aryl hydrocarbon receptor (Homo sapiens, UniProt P35869); assay: Antagonist activity at recombinant human eGFP-fused Ahr expressed in yeast cells co-expressing ARNT assessed as inhibition of benzo(a)pyrene-induced Ahr activation at 1 uM measured after 18 hrs by fluorescence assay; format: cell-based
T8 sequence (P35869 whole entry): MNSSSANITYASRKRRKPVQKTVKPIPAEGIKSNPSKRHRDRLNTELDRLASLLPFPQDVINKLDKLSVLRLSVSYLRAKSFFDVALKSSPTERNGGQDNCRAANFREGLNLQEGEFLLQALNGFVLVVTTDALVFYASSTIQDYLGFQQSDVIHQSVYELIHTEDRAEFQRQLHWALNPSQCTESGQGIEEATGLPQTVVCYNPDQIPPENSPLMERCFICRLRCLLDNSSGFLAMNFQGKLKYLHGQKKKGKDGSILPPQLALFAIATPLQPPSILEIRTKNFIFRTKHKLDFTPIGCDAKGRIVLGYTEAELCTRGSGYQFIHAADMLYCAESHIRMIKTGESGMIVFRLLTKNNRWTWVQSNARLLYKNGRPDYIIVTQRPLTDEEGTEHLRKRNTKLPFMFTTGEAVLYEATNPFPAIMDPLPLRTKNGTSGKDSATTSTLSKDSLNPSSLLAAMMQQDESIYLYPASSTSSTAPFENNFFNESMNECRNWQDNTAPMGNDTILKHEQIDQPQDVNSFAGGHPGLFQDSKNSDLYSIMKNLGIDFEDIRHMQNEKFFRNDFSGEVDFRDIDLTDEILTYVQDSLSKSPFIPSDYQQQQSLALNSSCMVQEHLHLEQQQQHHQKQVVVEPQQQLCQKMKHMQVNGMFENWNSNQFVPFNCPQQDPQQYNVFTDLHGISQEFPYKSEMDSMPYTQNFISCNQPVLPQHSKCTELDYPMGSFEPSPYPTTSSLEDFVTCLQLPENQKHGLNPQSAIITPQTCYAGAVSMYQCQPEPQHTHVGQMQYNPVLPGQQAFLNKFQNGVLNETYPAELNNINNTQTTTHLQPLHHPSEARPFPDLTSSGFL

[18] = biological target: T1, Cytochrome P450 1A1; assay: Inhibition of recombinant human CYP1A1 expressed in HEK293 cells assessed as reduction in benzo(a)pyrene-induced toxicity by measuring increase in B[a]P EC50 at 2 times IC50 by MTT assay; format: cell-based
[19] = biological target: T2, Cytochrome P450 1B1; assay: Inhibition of recombinant human CYP1B1 expressed in HEK293 cells assessed as potentiation of cisplatin-induced cytotoxicity by measuring reduction in cisplatin EC50 by MTT assay; format: cell-based

IC50 [1]	IC50 [2]	IC50 [3]	IC50 [4]	IC50 [5]	IC50 [6]	IC50 [7]	IC50 [8]	IC50 [9]	IC50 [10]	IC50 [11]	IC50 [12]	IC50 [13]	IC50 [14]	inhibition (INH) [17]	Structure (SMILES)	Ratio IC50 [15]	Ratio IC50 [16]	inhibition (INH) [18]	inhibition (INH) [19]
0.065 µM	2.92 µM	0.78 µM	15 µM	> 20 µM	> 20 µM	> 20 µM	0.065 µM	3.07 µM	0.82 µM	> 10 µM	> 10 µM	> 10 µM	> 10 µM	Active	CCOc1cc(/C=C/C(=O)c2ccncc2)cc(OC)c1OCC	< 10	< 10		
															O=c1cc(-c2ccccc2)oc2c1ccc1ccccc12 [ALPHA-NAPHTHOFLAVONE]			Active	Active
